Source: PMC6757289, “Design and Characterization of SGK3-PROTAC1, an Isoform Specific SGK3 Kinase PROTAC Degrader” (ACS Chemical Biology, 2019)
Where two headings read alike, the source gives them in different places.

Assays:
Experiment in all cases: kinase profiling panel
Format in all cases: biochemical
Conditions in all cases: read-out: % Activity Remaining
EPH-A2 = EPH-A2 (Homo sapiens, UniProt P29317)
Excerpt: (§1) Protein kinase profiling against a Dundee panel of 140 protein kinases was undertaken at the International Centre for Protein Kinase Profiling. The result for each kinase was presented as a mean kinase activity of the reaction taken in triplicate relative to a control sample treated with DMSO. Assay conditions and abbreviations are available at http://www.kinase-screen.mrc.ac.uk.

ERK8 = target: T1, ERK8 (Homo sapiens, UniProt Q8TD08)
T1 sequence (Q8TD08 1-544): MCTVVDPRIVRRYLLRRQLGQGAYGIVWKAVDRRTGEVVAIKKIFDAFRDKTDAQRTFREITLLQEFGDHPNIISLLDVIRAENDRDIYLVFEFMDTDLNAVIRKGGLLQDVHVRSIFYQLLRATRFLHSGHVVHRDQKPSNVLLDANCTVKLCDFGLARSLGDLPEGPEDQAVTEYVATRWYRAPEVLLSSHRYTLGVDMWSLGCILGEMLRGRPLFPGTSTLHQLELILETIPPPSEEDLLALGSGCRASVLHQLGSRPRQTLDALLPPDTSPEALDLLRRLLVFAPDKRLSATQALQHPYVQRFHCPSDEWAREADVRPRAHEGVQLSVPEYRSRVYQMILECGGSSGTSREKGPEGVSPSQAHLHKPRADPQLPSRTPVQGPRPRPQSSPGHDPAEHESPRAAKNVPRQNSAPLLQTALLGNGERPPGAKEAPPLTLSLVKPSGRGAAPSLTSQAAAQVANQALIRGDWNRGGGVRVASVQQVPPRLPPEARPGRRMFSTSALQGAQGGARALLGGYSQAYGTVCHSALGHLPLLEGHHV
Excerpt: as §1

PAK5 = PAK5 (Homo sapiens, UniProt Q9P286)
Sequence of PAK5 (Q9P286 whole entry): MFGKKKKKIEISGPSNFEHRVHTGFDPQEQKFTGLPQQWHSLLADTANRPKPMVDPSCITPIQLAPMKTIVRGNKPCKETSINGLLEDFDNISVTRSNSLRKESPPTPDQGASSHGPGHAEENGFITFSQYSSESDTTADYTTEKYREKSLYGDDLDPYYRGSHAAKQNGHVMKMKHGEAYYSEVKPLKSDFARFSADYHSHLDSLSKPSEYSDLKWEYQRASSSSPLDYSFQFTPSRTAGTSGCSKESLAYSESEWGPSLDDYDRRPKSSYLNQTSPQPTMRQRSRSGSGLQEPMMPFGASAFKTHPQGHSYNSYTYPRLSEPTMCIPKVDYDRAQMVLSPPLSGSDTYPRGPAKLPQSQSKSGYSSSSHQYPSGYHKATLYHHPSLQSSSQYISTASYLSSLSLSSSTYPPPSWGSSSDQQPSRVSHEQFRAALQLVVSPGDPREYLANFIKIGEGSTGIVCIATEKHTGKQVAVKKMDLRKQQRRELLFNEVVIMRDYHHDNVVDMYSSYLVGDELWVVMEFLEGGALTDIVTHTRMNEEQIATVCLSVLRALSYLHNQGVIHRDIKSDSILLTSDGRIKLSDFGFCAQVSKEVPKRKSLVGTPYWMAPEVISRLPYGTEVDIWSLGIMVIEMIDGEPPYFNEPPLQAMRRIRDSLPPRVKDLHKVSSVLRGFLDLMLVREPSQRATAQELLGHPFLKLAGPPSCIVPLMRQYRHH
Excerpt: as §1

PKA = PKA (Homo sapiens, UniProt P17612)
Excerpt: as §1

IR = IR (Homo sapiens, UniProt P06213)
Excerpt: as §1

NEK2a = target: T2, NEK2a (Homo sapiens, UniProt P51955)
T2 sequence (P51955 1-445): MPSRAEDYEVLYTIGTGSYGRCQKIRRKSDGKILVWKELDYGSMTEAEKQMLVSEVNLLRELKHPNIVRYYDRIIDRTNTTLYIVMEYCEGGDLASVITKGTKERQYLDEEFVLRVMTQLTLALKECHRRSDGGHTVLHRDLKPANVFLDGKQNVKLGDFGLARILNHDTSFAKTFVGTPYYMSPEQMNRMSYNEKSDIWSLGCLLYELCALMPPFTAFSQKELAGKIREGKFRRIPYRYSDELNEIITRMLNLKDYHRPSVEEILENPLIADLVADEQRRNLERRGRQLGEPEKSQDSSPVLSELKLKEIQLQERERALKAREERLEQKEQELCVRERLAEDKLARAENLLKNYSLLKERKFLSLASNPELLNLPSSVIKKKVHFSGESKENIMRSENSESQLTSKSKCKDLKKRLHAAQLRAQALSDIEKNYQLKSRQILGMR
Excerpt: as §1

PKC gamma = PKC gamma (Homo sapiens, UniProt P05129)
Excerpt: as §1

PKB beta = PKB beta (Homo sapiens, UniProt P31751)
Excerpt: as §1

Aurora A = target: T3, Aurora A (Homo sapiens, UniProt O14965)
T3 sequence (O14965 1-403): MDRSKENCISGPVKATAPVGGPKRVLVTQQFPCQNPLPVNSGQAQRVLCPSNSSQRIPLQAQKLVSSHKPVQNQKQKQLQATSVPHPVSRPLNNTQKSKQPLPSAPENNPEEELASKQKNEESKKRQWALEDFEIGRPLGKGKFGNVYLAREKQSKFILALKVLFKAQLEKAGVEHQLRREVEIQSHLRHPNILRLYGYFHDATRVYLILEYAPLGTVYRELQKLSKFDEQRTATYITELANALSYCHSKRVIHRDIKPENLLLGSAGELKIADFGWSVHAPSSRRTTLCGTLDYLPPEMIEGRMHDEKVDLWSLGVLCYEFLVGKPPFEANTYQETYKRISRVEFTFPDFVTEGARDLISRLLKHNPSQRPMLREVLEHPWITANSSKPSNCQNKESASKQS
Excerpt: as §1

JNK1 = JNK1 (Homo sapiens, UniProt P45983)
Excerpt: as §1

HER4 = HER4 (Homo sapiens, UniProt Q15303)
Sequence of HER4 (Q15303 26-1308): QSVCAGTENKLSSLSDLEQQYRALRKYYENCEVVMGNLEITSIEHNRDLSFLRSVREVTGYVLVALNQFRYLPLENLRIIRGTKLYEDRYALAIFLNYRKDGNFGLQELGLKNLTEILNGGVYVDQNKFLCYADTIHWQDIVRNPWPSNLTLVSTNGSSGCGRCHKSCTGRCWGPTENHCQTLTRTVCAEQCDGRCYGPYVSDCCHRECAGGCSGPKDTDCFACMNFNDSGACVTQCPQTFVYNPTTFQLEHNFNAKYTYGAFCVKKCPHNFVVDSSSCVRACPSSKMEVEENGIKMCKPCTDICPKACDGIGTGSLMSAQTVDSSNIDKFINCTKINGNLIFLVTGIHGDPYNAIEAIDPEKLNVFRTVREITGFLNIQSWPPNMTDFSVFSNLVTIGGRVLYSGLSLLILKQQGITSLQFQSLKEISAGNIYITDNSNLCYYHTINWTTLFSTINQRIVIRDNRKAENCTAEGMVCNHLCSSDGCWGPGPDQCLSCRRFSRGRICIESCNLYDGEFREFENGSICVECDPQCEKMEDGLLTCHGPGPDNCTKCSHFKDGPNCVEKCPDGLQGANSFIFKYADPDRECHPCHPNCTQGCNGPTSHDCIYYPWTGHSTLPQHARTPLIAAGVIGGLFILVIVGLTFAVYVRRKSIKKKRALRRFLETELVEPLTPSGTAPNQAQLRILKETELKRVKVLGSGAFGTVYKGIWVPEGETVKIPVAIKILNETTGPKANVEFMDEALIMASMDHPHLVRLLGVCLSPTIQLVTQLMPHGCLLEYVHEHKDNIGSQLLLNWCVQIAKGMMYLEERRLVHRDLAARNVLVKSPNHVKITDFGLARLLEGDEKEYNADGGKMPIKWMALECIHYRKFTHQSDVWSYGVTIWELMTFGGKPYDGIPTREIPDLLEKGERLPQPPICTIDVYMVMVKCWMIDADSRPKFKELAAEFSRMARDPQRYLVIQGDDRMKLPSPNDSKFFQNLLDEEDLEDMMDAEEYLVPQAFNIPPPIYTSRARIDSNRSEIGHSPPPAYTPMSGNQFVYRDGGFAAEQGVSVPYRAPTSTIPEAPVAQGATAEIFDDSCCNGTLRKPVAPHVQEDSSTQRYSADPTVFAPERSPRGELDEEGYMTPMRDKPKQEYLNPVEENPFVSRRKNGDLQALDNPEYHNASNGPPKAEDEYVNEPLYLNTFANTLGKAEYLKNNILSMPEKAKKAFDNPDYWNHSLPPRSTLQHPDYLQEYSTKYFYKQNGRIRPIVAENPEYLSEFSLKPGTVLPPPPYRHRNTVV
Excerpt: as §1

JAK2 = JAK2 (Homo sapiens, UniProt O60674)
Excerpt: as §1

TIE2 = TIE2 (Homo sapiens, UniProt Q02763)
Sequence of TIE2 (Q02763 23-1124): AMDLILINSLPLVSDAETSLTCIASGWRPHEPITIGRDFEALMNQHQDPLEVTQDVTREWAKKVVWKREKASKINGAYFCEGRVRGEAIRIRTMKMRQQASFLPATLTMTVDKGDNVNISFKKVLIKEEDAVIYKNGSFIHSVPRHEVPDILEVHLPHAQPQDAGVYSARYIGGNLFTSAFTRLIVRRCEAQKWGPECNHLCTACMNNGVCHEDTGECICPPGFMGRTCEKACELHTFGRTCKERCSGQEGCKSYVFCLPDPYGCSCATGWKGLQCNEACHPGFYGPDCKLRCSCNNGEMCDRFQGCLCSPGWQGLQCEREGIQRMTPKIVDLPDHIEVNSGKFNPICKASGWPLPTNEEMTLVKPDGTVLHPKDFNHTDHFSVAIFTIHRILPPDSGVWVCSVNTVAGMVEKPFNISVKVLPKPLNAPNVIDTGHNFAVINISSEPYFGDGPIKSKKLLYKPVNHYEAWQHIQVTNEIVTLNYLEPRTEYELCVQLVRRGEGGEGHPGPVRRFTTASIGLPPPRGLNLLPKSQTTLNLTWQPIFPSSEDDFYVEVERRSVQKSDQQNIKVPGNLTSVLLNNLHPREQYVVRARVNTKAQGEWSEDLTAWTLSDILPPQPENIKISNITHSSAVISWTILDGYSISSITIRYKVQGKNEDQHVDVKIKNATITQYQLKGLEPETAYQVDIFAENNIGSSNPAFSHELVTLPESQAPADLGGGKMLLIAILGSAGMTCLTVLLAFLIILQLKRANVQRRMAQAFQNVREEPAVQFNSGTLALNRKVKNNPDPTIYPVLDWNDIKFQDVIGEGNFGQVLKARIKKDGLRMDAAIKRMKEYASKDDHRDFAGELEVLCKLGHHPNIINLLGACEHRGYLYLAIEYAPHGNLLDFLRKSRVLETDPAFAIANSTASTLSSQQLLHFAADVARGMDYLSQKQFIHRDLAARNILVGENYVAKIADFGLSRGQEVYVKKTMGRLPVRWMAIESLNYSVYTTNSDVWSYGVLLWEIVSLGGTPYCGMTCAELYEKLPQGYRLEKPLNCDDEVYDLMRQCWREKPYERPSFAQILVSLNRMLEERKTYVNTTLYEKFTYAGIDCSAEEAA
Excerpt: as §1

Sequence of EPH-A2 (P29317 24-976): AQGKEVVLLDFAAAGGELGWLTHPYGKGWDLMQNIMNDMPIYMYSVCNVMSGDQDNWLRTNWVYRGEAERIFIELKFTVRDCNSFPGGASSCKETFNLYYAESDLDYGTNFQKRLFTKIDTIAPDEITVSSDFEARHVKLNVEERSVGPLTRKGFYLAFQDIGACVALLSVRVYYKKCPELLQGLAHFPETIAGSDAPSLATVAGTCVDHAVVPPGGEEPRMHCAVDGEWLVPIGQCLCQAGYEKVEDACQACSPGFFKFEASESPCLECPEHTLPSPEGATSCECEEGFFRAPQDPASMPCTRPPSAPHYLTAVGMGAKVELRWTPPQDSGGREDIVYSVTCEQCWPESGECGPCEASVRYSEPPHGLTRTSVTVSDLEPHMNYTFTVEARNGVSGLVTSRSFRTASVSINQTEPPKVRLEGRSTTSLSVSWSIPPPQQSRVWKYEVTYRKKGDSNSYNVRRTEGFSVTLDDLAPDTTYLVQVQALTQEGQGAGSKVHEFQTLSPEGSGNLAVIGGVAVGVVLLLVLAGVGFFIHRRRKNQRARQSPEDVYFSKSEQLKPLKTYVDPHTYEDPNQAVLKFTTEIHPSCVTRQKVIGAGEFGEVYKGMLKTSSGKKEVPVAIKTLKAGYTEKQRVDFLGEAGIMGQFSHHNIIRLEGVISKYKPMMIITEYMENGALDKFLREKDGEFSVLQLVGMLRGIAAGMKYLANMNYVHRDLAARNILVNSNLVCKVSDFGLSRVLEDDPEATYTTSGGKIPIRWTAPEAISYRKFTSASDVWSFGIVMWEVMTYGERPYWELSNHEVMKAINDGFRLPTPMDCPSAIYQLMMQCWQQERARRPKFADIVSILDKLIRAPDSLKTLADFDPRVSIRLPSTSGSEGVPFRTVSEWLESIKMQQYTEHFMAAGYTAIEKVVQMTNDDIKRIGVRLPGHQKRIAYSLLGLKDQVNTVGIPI

**Q.** With `COc1ccc(Cl)c(S(=O)(=O)Nc2ccc(-c3nc(OC[C@H]4CNCCO4)c4c(C)n[nH]c4n3)cc2)c1` [290-R, reference compound] as the molecule, how does the remaining activity at 1 µM (EPH-A2) read?
**A.** The remaining activity at 1 µM was 109%.

**Q.** And the remaining activity at 1 µM (ERK8)?
**A.** The remaining activity at 1 µM was 18%.

**Q.** And the remaining activity at 1 µM (PAK5)?
**A.** Its remaining activity at 1 µM is 110%.

**Q.** And the remaining activity at 1 µM (PKA)?
**A.** The remaining activity at 1 µM was 85%.

**Q.** What about the remaining activity at 1 µM (IR) of the same molecule?
**A.** Its remaining activity at 1 µM is 102%.

**Q.** And the remaining activity at 1 µM (NEK2a)?
**A.** The remaining activity at 1 µM was 74%.

**Q.** What about the remaining activity at 1 µM (PKC gamma) of the same molecule?
**A.** Its remaining activity at 1 µM is 101%.

**Q.** What about the remaining activity at 1 µM (PKB beta) of the same molecule?
**A.** The remaining activity at 1 µM was 55%.

**Q.** And the remaining activity at 1 µM (Aurora A)?
**A.** The remaining activity at 1 µM was 108%.

**Q.** And the remaining activity at 1 µM (JNK1)?
**A.** The remaining activity at 1 µM was 101%.

**Q.** And the remaining activity at 1 µM (HER4)?
**A.** Its remaining activity at 1 µM is 102%.

**Q.** What about the remaining activity at 1 µM (JAK2) of the same molecule?
**A.** The remaining activity at 1 µM was 112%.

**Q.** What about the remaining activity at 1 µM (TIE2) of the same molecule?
**A.** The remaining activity at 1 µM was 17%.

**Q.** How did the remaining activity at 1 µM (EPH-A2) turn out when `Cc1ccc(F)c(S(=O)(=O)Nc2ccc(-c3nc(OC[C@H]4CNCCO4)c4cn[nH]c4n3)cc2)c1` [308-R, reference compound] was run?
**A.** The remaining activity at 1 µM was 113%.

**Q.** And the remaining activity at 1 µM (ERK8)?
**A.** The remaining activity at 1 µM was 49%.

**Q.** And the remaining activity at 1 µM (PAK5)?
**A.** The remaining activity at 1 µM was 83%.

**Q.** And the remaining activity at 1 µM (PKA)?
**A.** Its remaining activity at 1 µM is 106%.

**Q.** What about the remaining activity at 1 µM (IR) of the same molecule?
**A.** The remaining activity at 1 µM was 110%.

**Q.** What about the remaining activity at 1 µM (NEK2a) of the same molecule?
**A.** Its remaining activity at 1 µM is 67%.

**Q.** What about the remaining activity at 1 µM (PKC gamma) of the same molecule?
**A.** The remaining activity at 1 µM was 90%.

**Q.** And the remaining activity at 1 µM (PKB beta)?
**A.** The remaining activity at 1 µM was 35%.

**Q.** What about the remaining activity at 1 µM (Aurora A) of the same molecule?
**A.** The remaining activity at 1 µM was 109%.

**Q.** And the remaining activity at 1 µM (JNK1)?
**A.** The remaining activity at 1 µM was 112%.

**Q.** What about the remaining activity at 1 µM (HER4) of the same molecule?
**A.** Its remaining activity at 1 µM is 67%.

**Q.** What about the remaining activity at 1 µM (JAK2) of the same molecule?
**A.** The remaining activity at 1 µM was 94%.

**Q.** And the remaining activity at 1 µM (TIE2)?
**A.** Its remaining activity at 1 µM is 51%.

**Q.** How did the remaining activity at 1 µM (EPH-A2; 1 µM) turn out when `Cc1ccc(F)c(S(=O)(=O)Nc2ccc(-c3nc(OC[C@H]4CN(CCCCCCOCCOCCOCC(=O)N[C@H](C(=O)N5C[C@H](O)C[C@H]5C(=O)NCc5ccc(-c6scnc6C)cc5)C(C)(C)C)CCO4)c4cn[nH]c4n3)cc2)c1` [SGK3-PROTAC1] was run?
**A.** Its remaining activity at 1 µM is 94%.

**Q.** And the remaining activity at 1 µM (ERK8; 1 µM)?
**A.** Its remaining activity at 1 µM is 94%.

**Q.** What about the remaining activity at 1 µM (PAK5; 1 µM) of the same molecule?
**A.** Its remaining activity at 1 µM is 88%.

**Q.** And the remaining activity at 1 µM (PKA; 1 µM)?
**A.** Its remaining activity at 1 µM is 108%.

**Q.** And the remaining activity at 1 µM (IR; 1 µM)?
**A.** Its remaining activity at 1 µM is 103%.

**Q.** And the remaining activity at 1 µM (NEK2a; 1 µM)?
**A.** Its remaining activity at 1 µM is 162%.

**Q.** And the remaining activity at 1 µM (PKC gamma; 1 µM)?
**A.** The remaining activity at 1 µM was 103%.

**Q.** What about the remaining activity at 1 µM (PKB beta; 1 µM) of the same molecule?
**A.** The remaining activity at 1 µM was 99%.

**Q.** What about the remaining activity at 1 µM (Aurora A; 1 µM) of the same molecule?
**A.** The remaining activity at 1 µM was 90%.

**Q.** And the remaining activity at 1 µM (JNK1; 1 µM)?
**A.** Its remaining activity at 1 µM is 117%.

**Q.** What about the remaining activity at 1 µM (HER4; 1 µM) of the same molecule?
**A.** Its remaining activity at 1 µM is 92%.

**Q.** And the remaining activity at 1 µM (JAK2; 1 µM)?
**A.** Its remaining activity at 1 µM is 95%.

**Q.** And the remaining activity at 1 µM (TIE2; 1 µM)?
**A.** Its remaining activity at 1 µM is 64%.

**Q.** What does the source list for `Cc1ccc(F)c(S(=O)(=O)Nc2ccc(-c3nc(OC[C@H]4CN(CCCCCCOCCOCCOCC(=O)N[C@H](C(=O)N5C[C@@H](O)C[C@H]5C(=O)NCc5ccc(-c6scnc6C)cc5)C(C)(C)C)CCO4)c4cn[nH]c4n3)cc2)c1` [cisSGK3-PROTAC1]?
**A.** remaining activity at 1 µM (EPH-A2; 1 µM): 104%; remaining activity at 1 µM (ERK8; 1 µM): 86%; remaining activity at 1 µM (PAK5; 1 µM): 105%; remaining activity at 1 µM (PKA; 1 µM): 111%; remaining activity at 1 µM (IR; 1 µM): 94%; remaining activity at 1 µM (NEK2a; 1 µM): 139%; remaining activity at 1 µM (PKC gamma; 1 µM): 100%; remaining activity at 1 µM (PKB beta; 1 µM): 101%; remaining activity at 1 µM (Aurora A; 1 µM): 91%; remaining activity at 1 µM (JNK1; 1 µM): 119%; remaining activity at 1 µM (HER4; 1 µM): 103%; remaining activity at 1 µM (JAK2; 1 µM): 94%; remaining activity at 1 µM (TIE2; 1 µM): 81%
